Some test systems named below: ACHN renal; HCT-116 colon; HL-60(TB) leukemia; K-562 leukemia; LOX IMVI melanoma; OVCAR-3 ovarian; SK-MEL-2 melanoma; SK-MEL-5 melanoma; SK-OV-3 ovarian; U251 CNS.
Common to all, as to test: DTP human tumour cell line panel, 48 h

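Cells were grown in 96-well plates and exposed to each compound for 48 hours at five concentrations; endpoints were interpolated linearly between bracketing concentrations, or set to the highest concentration if not reached. Here, GI50 denotes the concentration required for 50% inhibition of growth. TGI: total growth inhibition.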

As to `C/C(=C\c1ccn(-c2ccc(N)c(C(F)(F)F)c2)n1)[C@@H]1C[C@@H]2O[C@]2(C)CCC[C@H](C)[C@H](O)[C@@H](C)C(=O)C(C)(C)[C@@H](O)CC(=O)O1`, the GI50 in the assay with ACHN renal was 0.0268 µM; with HCT-116 colon, 0.00733 µM; with HL-60(TB) leukemia, 0.0086 µM; in the assay with K-562 leukemia it was 0.0109 µM; with LOX IMVI melanoma, 0.0122 µM; in the assay on OVCAR-3 ovarian it was 0.00997 µM. In addition, the GI50 is 0.0241 µM in the assay with SK-MEL-2 melanoma, less than 0.0108 µM in the assay with SK-MEL-5 melanoma, 0.103 µM in the assay with SK-OV-3 ovarian and less than 0.012 µM in the assay with U251 CNS. Also, the TGI in the assay with ACHN renal is more than 29.2 µM; in the assay on HCT-116 colon, more than 29.3 µM; in the assay on HL-60(TB) leukemia it was 0.203 µM; in the assay on K-562 leukemia it was more than 32.5 µM; in the assay on LOX IMVI melanoma, more than 20.8 µM; in the assay on OVCAR-3 ovarian, 1.46 µM. In addition, the total growth inhibition concentration (TGI) is 10.4 µM in the assay with SK-MEL-2 melanoma, 3.78 µM with SK-MEL-5 melanoma, more than 27.9 µM in the assay on SK-OV-3 ovarian and 8.55 µM in the assay with U251 CNS.
As for `CCC[CH2][Sn]1([CH2]CCC)[O]C(c2ccccn2)S(=O)(=O)[O]1` (stereo not given), the GI50 is 7.88 µM in the assay with ACHN renal; 11 µM in the assay on HCT-116 colon; 2.14 µM in the assay with HL-60(TB) leukemia; 2.14 µM with K-562 leukemia; 1.64 µM in the assay with LOX IMVI melanoma; 3.06 µM in the assay with OVCAR-3 ovarian. The GI50 was 1.7 µM in the assay on SK-MEL-2 melanoma, 12.5 µM with SK-MEL-5 melanoma, 16.8 µM in the assay with SK-OV-3 ovarian and 2.96 µM in the assay with U251 CNS. Also, the TGI was 20 µM in the assay on ACHN renal; 22.9 µM in the assay on HCT-116 colon; 5.04 µM in the assay with HL-60(TB) leukemia; 6.72 µM in the assay with K-562 leukemia; 3.07 µM in the assay on LOX IMVI melanoma; 11.6 µM in the assay with OVCAR-3 ovarian. Also, the TGI in the assay on SK-MEL-2 melanoma worked out at 3.22 µM; in the assay on SK-MEL-5 melanoma it was 25 µM; with SK-OV-3 ovarian, 30.9 µM; in the assay on U251 CNS it was 11.8 µM.
Turning to `CCOC(=O)C12CCCC1(O)N(NC(=O)c1cccc(Cl)c1)C(C)=C2C(=O)OC` (stereo not given), the concentration for total growth inhibition (TGI) with ACHN renal, with HCT-116 colon, in the assay with HL-60(TB) leukemia, with K-562 leukemia, in the assay with LOX IMVI melanoma and with OVCAR-3 ovarian was more than 100 µM each time. In addition, the TGI in the assay with SK-MEL-2 melanoma, in the assay with SK-MEL-5 melanoma, in the assay with SK-OV-3 ovarian and in the assay with U251 CNS was more than 100 µM throughout.
In the case of `CSc1ccc(-c2cn3ccsc3n2)c(O)c1`, the TGI was more than 100 µM in the assay with ACHN renal; more than 67.3 µM in the assay with HCT-116 colon; more than 63.1 µM in the assay on HL-60(TB) leukemia; more than 60.2 µM with K-562 leukemia; more than 56.5 µM in the assay with LOX IMVI melanoma; more than 100 µM with OVCAR-3 ovarian. In addition, the TGI in the assay on SK-MEL-2 melanoma, with SK-MEL-5 melanoma, in the assay with SK-OV-3 ovarian and in the assay on U251 CNS was more than 100 µM each time.
As for `COC(=O)C1=CC(O)CCC1c1ccc(OC)cc1` (stereo not given), the concentration for total growth inhibition (TGI) in the assay with ACHN renal, with HCT-116 colon, in the assay on HL-60(TB) leukemia, in the assay on K-562 leukemia, in the assay with LOX IMVI melanoma and in the assay with OVCAR-3 ovarian was more than 100 µM throughout. In addition, the TGI with SK-MEL-2 melanoma, in the assay with SK-MEL-5 melanoma, in the assay with SK-OV-3 ovarian and in the assay on U251 CNS was more than 100 µM throughout.
In the case of `CS(=O)(=O)CCNCc1ccc(-c2ccc3ncnc(Nc4ccc(OCc5ccccc5)c(C(F)(F)F)c4)c3c2)o1`, the GI50 in the assay on ACHN renal was 7.32 µM; with HCT-116 colon it was 4.27 µM; in the assay with HL-60(TB) leukemia it was 5.65 µM; in the assay on K-562 leukemia, 6.83 µM; in the assay with LOX IMVI melanoma, 4.27 µM; with OVCAR-3 ovarian it was 7.37 µM. Besides, the GI50 in the assay on SK-MEL-2 melanoma is 5.68 µM; in the assay with SK-MEL-5 melanoma it was 3.55 µM; with SK-OV-3 ovarian it was 7.19 µM; in the assay with U251 CNS, 4.49 µM. For the same compound, the TGI in the assay on ACHN renal was more than 25 µM; in the assay on HCT-116 colon it was 7.88 µM; with HL-60(TB) leukemia, 13.3 µM; in the assay on K-562 leukemia it was 18.2 µM; in the assay with LOX IMVI melanoma, 8.33 µM; in the assay on OVCAR-3 ovarian it was 19.2 µM. Further, the TGI was 11.4 µM with SK-MEL-2 melanoma, 6.87 µM in the assay on SK-MEL-5 melanoma, more than 22.1 µM with SK-OV-3 ovarian and 8.92 µM in the assay with U251 CNS.
Turning to `Nc1ccccc1NC(=O)c1ccc(CSc2nc(N3CCOCC3)c3cccn3n2)cc1`, the GI50 in the assay on ACHN renal was 0.863 µM; in the assay on HCT-116 colon, 0.379 µM; in the assay on HL-60(TB) leukemia, 0.273 µM; in the assay with K-562 leukemia, 0.312 µM; in the assay with LOX IMVI melanoma, 0.49 µM; with OVCAR-3 ovarian, 1.05 µM. In addition, the GI50 in the assay with SK-MEL-2 melanoma is 0.314 µM; in the assay on SK-MEL-5 melanoma it was 0.415 µM; with SK-OV-3 ovarian, 0.79 µM; in the assay on U251 CNS, 0.565 µM. Moreover, the TGI with ACHN renal was more than 100 µM; in the assay with HCT-116 colon it was more than 100 µM; in the assay on HL-60(TB) leukemia, 0.961 µM; in the assay on K-562 leukemia, more than 100 µM; in the assay with LOX IMVI melanoma it was 3.22 µM; with OVCAR-3 ovarian it was 6.73 µM. The total growth inhibition concentration (TGI) came to 1.88 µM in the assay on SK-MEL-2 melanoma, 1.61 µM in the assay with SK-MEL-5 melanoma, 6.43 µM in the assay on SK-OV-3 ovarian and 5.61 µM in the assay on U251 CNS.
On to `CCOC(=O)[C@H](CSSc1ncnc2cc[nH]c12)NC(=O)[C@@H](C)c1ccc2cc(OC)ccc2c1`, for which the GI50 in the assay with ACHN renal was 2.1 µM; with HCT-116 colon, 0.474 µM; in the assay with HL-60(TB) leukemia it was 1.04 µM; with K-562 leukemia it was 0.156 µM; in the assay with LOX IMVI melanoma, 0.081 µM; in the assay on OVCAR-3 ovarian it was 0.125 µM. Also, the GI50 in the assay with SK-MEL-2 melanoma is 0.791 µM; in the assay on SK-MEL-5 melanoma, 2.25 µM; in the assay with SK-OV-3 ovarian, 2.77 µM; with U251 CNS, 4.77 µM. The TGI with ACHN renal was more than 100 µM; in the assay on HCT-116 colon it was more than 100 µM; in the assay on HL-60(TB) leukemia, more than 100 µM; with K-562 leukemia, more than 100 µM; in the assay with LOX IMVI melanoma, 18.1 µM; with OVCAR-3 ovarian, more than 100 µM. For the same compound, the TGI in the assay on SK-MEL-2 melanoma was more than 29 µM; with SK-MEL-5 melanoma it was more than 32.5 µM; in the assay with SK-OV-3 ovarian it was more than 100 µM; in the assay with U251 CNS it was more than 100 µM.

In general, GI50 refers to the concentration that inhibits growth by half. What is called TGI is the concentration giving total growth inhibition. High values mean lower sensitivity of the cells, low ones greater sensitivity of the cells.

For the origin of these results see PubChem BioAssay (NCI).
